From patent publication US20220184083A1, “USE OF AN AGENT CAPABLE OF INHIBITING THE ACTIVATION OF MAIT CELLS FOR THE TREATMENT OF OBESITY AND OBESITY-RELATED DISORDERS” (INSERM (INSTITUT NATIONAL DE LA SANTÉ ET DE LA RECHERCH …, priority 2019, published 2022)

Legend:
Assay type in all cases: in vivo
Vαl9^+/− mice fed HFD = assay: ITT, OGTT and weight gain in Vαl9+/− mice on high fat diet treated with Ac-6-FP
Source text: FIG. 2: Ac-6-FP treatment during HFD improved metabolic parameters. Vαl9^+/− mice fed during 6 weeks of HFD were then giving water containing 50 nm/ml of Ac-6-FP (Acetyl-6-formylpterin) (n=8) or PBS (n=7) for 8 weeks and IP injected, twice a week, 50 nm of Ac-6-FP or PBS. (A) ITT and OGTT in Vαl9^+/− Ac-6-FP-treated mice and Vαl9^+/− control mice. (B) Percentage of weight gain of Ac-6-FP-treated Vαl9^+/− mice and Vαl9^+/− control mice.

MAIT cells = assay: Intracellular staining of MAIT cells for IL-17A in ileum and visceral adipose tissue; conditions: Vα19+/− mice, Ac-6-FP treated vs control (PBS)
Source text: FIG. 3: Intra cellular staining of MAIT cells for IL-17A. Frequency of IL-17A positive MAIT cells in ileum and visceral adipose tissue from Vαl9+/− control (PBS) and Vαl9+/− Ac-6-FP treated mice.

MR1−/− mice = assay: ITT and OGTT at 12 weeks of HFD in MR1−/− mice treated with Ac-6-FP; conditions: Ac-6-FP treated vs controls
Source text: FIG. 5: Insulin Tolerance Test (ITT) and Oral Glucose Tolerance Test (OGTT) at 12 weeks of High Fat Diet (HFD) in MR1−/− Ac-6-FP treated mice and their respective controls.

[1] = test system: visceral adipose tissue macrophages; assay: Frequency of M1 and M2 macrophages in visceral adipose tissue; conditions: Vαl9+/− mice, treated vs non-treated
Source text: FIG. 4: Frequency of MI-macrophages (CD206−CD11c+) and M2-macrophages (CD206+CD11c−) among total macrophages and M1/M2 ratio in visceral adipose tissue from Vαl9+/− Ac-6-FP treated mice and their controls.

## CC(=O)Nc1nc2ncc(C=O)nc2c(=O)[nH]1 [Ac-6-FP, acetyl-6-formylpterin]
Vαl9^+/− mice fed HFD; Ac-6-FP treatment during high fat diet (HFD), obese mice
  insulin sensitivity: improved
Vαl9^+/− mice fed HFD; Vαl9+/− mice, 6 weeks HFD, then water containing 50 nm/ml Ac-6-FP for 8 weeks plus IP 50 nm twice a week, vs PBS
  metabolic parameters (ITT, OGTT, percentage of weight gain): improved
MAIT cells; ileum
  production of IL-17A by MAIT cells: decreased production
MAIT cells; visceral adipose tissue
  production of IL-17A by MAIT cells: decreased production
MR1−/− mice
  glucose tolerance (OGTT): did not have any effect
  insulin sensitivity (ITT): did not have any effect
[1]
  frequency of M1-like macrophages (pro-inflammatory, CD206−CD11c+): decreased frequency
  frequency of M2-like macrophages (anti-inflammatory, CD206+CD11c−): increased frequency
